Laboratory results reported in publication PMC10687582, “Herpetrione, a New Type of PPARα Ligand as a Therapeutic Strategy Against Nonalcoholic Steatohepatitis” (Research, 2023).
pKd: −log10 of the molar value.

Target: T1, PPARα (Homo sapiens, UniProt Q07869)
T1 construct: gene PPARA
T1 sequence (Q07869 200-468 limits assumed): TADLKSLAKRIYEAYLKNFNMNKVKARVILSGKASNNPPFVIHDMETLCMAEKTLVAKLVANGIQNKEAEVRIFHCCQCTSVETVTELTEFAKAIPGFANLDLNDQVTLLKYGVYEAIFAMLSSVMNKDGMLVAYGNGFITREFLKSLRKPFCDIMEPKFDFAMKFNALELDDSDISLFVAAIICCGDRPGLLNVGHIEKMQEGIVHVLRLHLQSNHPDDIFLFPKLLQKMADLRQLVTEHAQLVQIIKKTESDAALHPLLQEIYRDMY
Assay: ITC (KD […]; WT in the mutant comparison […]); SPR KD […]; CETSA and DARTS in HepG2 lysates
Format: binding

pKd: 5.49
Structure (SMILES): COc1cc(C(=O)C(CO)c2cc(C3OCC4C(c5ccc(O)c(OC)c5)OCC34)cc(OC)c2O)ccc1O (stereo not shown) [herpetrione]
